From EPA's ToxValDB 9.5
“And” between values parts separate entries of the source, which are not always exact repeats. Equal entries are not always repeated. Blank lines part the entries; values can stand above or below the compound they belong to.

How the values were obtained:
Rattus norvegicus [1] = tested on: Rattus norvegicus
Rattus norvegicus [2] = details: for LEL: uterotrophic, duration: 3 days, Active
[3] = subchronic, duration: 13 weeks, oral, diet, F, Crl:CD(SD) BR, Blood: Hematocrit (HCT) + Blood: Mean Corpuscular Volume (MCV) + Brain: Brain Weight, Absolute + Kidney: Urea Nitrogen + Liver: Cholesterol…
[4] = subchronic, duration: 13 weeks, oral, diet, F, Crl:CD(SD) BR, Blood: Red Blood Cell (RBC) + Kidney: Kidney Weight, Relative + Liver: Hepatocellular Hypertrophy, Centrilobular + Liver: Liver Weight, …
[5] = subchronic, duration: 13 weeks, oral, diet, F, Sprague-Dawley, Endocrine: Adrenal: Adrenal Gland Weight, Absolute + Endocrine: Adrenal: Adrenal Gland Weight, Relative to Brain + Hepatic: Liver: Liver …
[6] = subchronic, duration: 13 weeks, oral, diet, F, Sprague-Dawley, Hepatic: Liver: Total Bilirubin (TBILI) + Immune: Blood: Monocytes %
[7] = subchronic, duration: 13 weeks, oral, diet, M, Crl:CD(SD) BR, Blood: Calcium (CA), Blood + Blood: Globulin (G), Blood + Brain: Brain Weight, Relative + Kidney: Kidney Weight, Relative + Liver: …
[8] = subchronic, duration: 13 weeks, oral, diet, M, Crl:CD(SD) BR, Blood: Glucose (GLU), Blood + Blood: Hematocrit (HCT) + Kidney: Kidney Weight, Absolute + Kidney: Kidney Weight, Relative to Brain + Kidney…
[9] = subchronic, duration: 13 weeks, oral, diet, M, Sprague-Dawley, Cardiovascular: Heart: Heart, Degeneration/Necrosis + Endocrine: Adrenal: Adrenal Gland Weight, Absolute + Endocrine: Thyroid/Parathyroid: …
[10] = subchronic, duration: 13 weeks, oral, diet, M, Sprague-Dawley, Endocrine: Adrenal: Adrenal Gland Weight, Relative + Endocrine: Adrenal: Adrenal Gland Weight, Relative to Brain + Endocrine: Adrenal: …
[11] = subchronic, duration: 13 weeks, oral, diet, M, Sprague-Dawley, Immune: Blood: Basophils

- NEL (Rattus norvegicus [1]; chronic, duration: 14 weeks, oral, diet, M/F, Crl:CD(SD) BR, Eye: Ophthalmology, Unspecified + Whole Body: Clinical Observations): 7.8 mg/kg-day and 7.27 mg/kg-day
- NEL (Rattus norvegicus [1]; subchronic, duration: 13 weeks, oral, diet, F, Crl:CD(SD) BR, Adrenal: Adrenal Cortex Histopathology + Adrenal: Adrenal Gland Weight, Absolute + Adrenal: Adrenal Gland Weight, Relative + Adrenal: …): 9.6 mg/kg-day and 7.7 mg/kg-day
- LEL (Rattus norvegicus [1]; [3]): 9.6 mg/kg-day and 7.7 mg/kg-day
- NEL (Rattus norvegicus [1]; [3]): 2.88 mg/kg-day and 2.59 mg/kg-day
- NEL (Rattus norvegicus [1]; subchronic, duration: 13 weeks, oral, diet, M, Crl:CD(SD) BR, Adrenal: Adrenal Cortex Histopathology + Adrenal: Adrenal Gland Weight, Absolute + Adrenal: Adrenal Gland Weight, Relative + Adrenal: …): 6.84 mg/kg-day and 9.6 mg/kg-day
- LEL (Rattus norvegicus [1]; [7]): 2.04 mg/kg-day and 2.88 mg/kg-day
- NEL (Rattus norvegicus [1]; [7]): 0.203 mg/kg-day and 0.288 mg/kg-day
- LEL (Rattus norvegicus [1]; [8]): 6.84 mg/kg-day and 9.6 mg/kg-day
- NEL (Rattus norvegicus [1]; [8]): 2.04 mg/kg-day and 2.88 mg/kg-day
Compound: CN(CCO)S(=O)(=O)C(F)(F)C(F)(F)C(F)(F)C(F)(F)C(F)(F)C(F)(F)C(F)(F)C(F)(F)F [N-Methyl-N-(2-hydroxyethyl)perfluorooctanesulfonamide]
- LEL (Rattus norvegicus [1]; [4]): 2.88 mg/kg-day and 2.59 mg/kg-day
- NEL (Rattus norvegicus [1]; [4]): 0.288 mg/kg-day and 0.24 mg/kg-day
- LEL (Rattus norvegicus [1]; subchronic, duration: 13 weeks, oral, diet, F, Crl:CD(SD) BR, Brain: Brain Weight, Relative + Whole Body: Body Weight Change): 0.288 mg/kg-day and 0.24 mg/kg-day
- NOAEL (Rattus norvegicus [1]; subchronic, duration: 13 weeks, oral, diet, F, Sprague-Dawley, Cardiovascular: Aorta: Aorta Histopathology + Cardiovascular: Heart: Heart, Degeneration/Necrosis + Endocrine: Adrenal: Adrenal Cortex …): 0.203 mg/kg-day
- LOAEL (Rattus norvegicus [1]; [5]): 6.84 mg/kg-day
- NOAEL (Rattus norvegicus [1]; [5]): 2.04 mg/kg-day
- NOAEL (Rattus norvegicus [1]; subchronic, duration: 13 weeks, oral, diet, F, Sprague-Dawley, Endocrine: Adrenal: Adrenal Medulla Histopathology + Endocrine: Thyroid/Parathyroid: Thyroid/Parathyroid Gland Weight, Relative to Brain + …): 6.84 mg/kg-day
- LOAEL (Rattus norvegicus [1]; subchronic, duration: 13 weeks, oral, diet, F, Sprague-Dawley, General Toxicity: Whole Body: Body Weight Change + General Toxicity: Whole Body: Body Weight, Absolute + Hematologic: Blood: Inorganic …): 0.203 mg/kg-day
- LOAEL (Rattus norvegicus [1]; [6]): 19.2 mg/kg-day
- NOAEL (Rattus norvegicus [1]; [6]): 1.92 mg/kg-day
- LEL (Rattus norvegicus [1]; subchronic, duration: 13 weeks, oral, diet, M, Crl:CD(SD) BR, Whole Body: Body Weight Change): 0.203 mg/kg-day and 0.288 mg/kg-day
- LOAEL (Rattus norvegicus [1]; subchronic, duration: 13 weeks, oral, diet, M, Sprague-Dawley, Cardiovascular: Aorta: Aorta Histopathology + Cardiovascular: Heart: Heart, Degeneration/Necrosis + Endocrine: Adrenal: Adrenal Cortex …): 0.203 mg/kg-day
- NOAEL (Rattus norvegicus [1]; subchronic, duration: 13 weeks, oral, diet, M, Sprague-Dawley, Cardiovascular: Aorta: Aorta Histopathology + Endocrine: Adrenal: Adrenal Cortex Histopathology + Endocrine: Pituitary: Pituitary Gland …): 6.84 mg/kg-day
- LOAEL (Rattus norvegicus [1]; [9]): 6.84 mg/kg-day
- NOAEL (Rattus norvegicus [1]; [9]): 2.04 mg/kg-day
- LOAEL (Rattus norvegicus [1]; [10]): 2.04 mg/kg-day
- NOAEL (Rattus norvegicus [1]; [10]): 0.203 mg/kg-day
- LOAEL (Rattus norvegicus [1]; subchronic, duration: 13 weeks, oral, diet, M, Sprague-Dawley, Hematologic: Blood: Hematocrit (HCT) + Hematologic: Blood: Mean Corpuscular Hemoglobin Concentration (MCHC) + Hepatic: Liver: Aspartate …): 0.203 mg/kg-day
- LOAEL (Rattus norvegicus [1]; [11]): 19.2 mg/kg-day
- NOAEL (Rattus norvegicus [1]; [11]): 1.92 mg/kg-day

Compound: O=[N+]([O-])c1ccc(Oc2ccc(Cl)cc2Cl)cc1 [Nitrofen]
- NOEL (Rattus norvegicus [1]; chronic, oral, diet, M, Wistar, heart: Heart weight + spleen: Spleen weight): 116 mg/kg-day
- LOEL (Rattus norvegicus [1]; chronic, oral, diet, M, Wistar, kidney: Kidney weight + liver: Liver weight + testes: Testes weight): 116 mg/kg-day
- NOEL (Rattus norvegicus [1]; chronic, oral, gavage, F, Wistar, heart: Heart weight + kidney: Kidney weight + liver: Liver weight): 127 mg/kg-day
- LOEL (Rattus norvegicus [1]; chronic, oral, gavage, F, Wistar, spleen: Spleen weight): 127 mg/kg-day
- LOEL (Rattus norvegicus [1]; subchronic, oral, diet, F, Wistar, heart: Heart weight + kidney: Kidney weight): 1280 mg/kg-day
- LOEL (Rattus norvegicus [1]; subchronic, oral, diet, F, Wistar, liver: Liver weight): 10 mg/kg-day
- NOEL (Rattus norvegicus [1]; subchronic, oral, diet, F, Wistar, spleen: Spleen weight): 1280 mg/kg-day
- LOEL (Rattus norvegicus [1]; subchronic, oral, diet, M, Sprague-Dawley, Albumin + Cholesterol + Globulin + Glucose + Terminal body weight + Total protein): 186 mg/kg-day
- LOEL (Rattus norvegicus [1]; subchronic, oral, diet, M, Sprague-Dawley, liver: Relative liver weight + Relative kidney weight + testes: Relative Testes weight): 37 mg/kg-day
- LOEL (Rattus norvegicus [1]; subchronic, oral, diet, M, Wistar, heart: Heart weight + spleen: Spleen weight): 1150 mg/kg-day
- LOEL (Rattus norvegicus [1]; subchronic, oral, diet, M, Wistar, kidney: Kidney Weight + testes: Testes weight): 230 mg/kg-day
- LOEL (Rattus norvegicus [1]; subchronic, oral, diet, M, Wistar, liver: Liver weight): 46 mg/kg-day

Compound: CCCCC(CC)CN1C(=O)C2C3C=CC(C3)C2C1=O (stereo not drawn) [Octylbicycloheptenedicarboximide]
- NOEL (Rattus norvegicus [2]; Hershberger, duration: 10 days, oral, gavage, Sprague-Dawley, inactive + Negative + Negative + neither + negative): 700 mg/kg-day

Compound: FC(F)(F)N1C(F)(F)C(F)(F)OC(F)(F)C1(F)F [Perfluoro(N-methylmorpholine)]
- NEL (Rattus norvegicus [1]; subchronic, duration: 13 weeks, inhalation, M/F, Sprague-Dawley, Blood: Hematology, Unspecified + Eye: Ophthalmology, Unspecified + Multi-organ: Clinical Chemistry, Unspecified + Multi-organ: …): 607000 mg/m3
- NEL (Rattus norvegicus [1]; subchronic, duration: 30 days, oral, gavage, M/F, Crl:CD(SD) BR, Blood: Hematology, Unspecified + Blood: Red Cell Morphology + Multi-organ: Clinical Chemistry, Unspecified + Multi-organ: Histopathology, …): 2000 mg/kg-day

- LEL (Rattus norvegicus [2]; injection, subcutaneous): 0.5 mg/kg-day
Compound: Cl.O=C(c1ccc(OCCN2CCCCC2)cc1)c1c(-c2ccc(O)cc2)sc2cc(O)ccc12 [Raloxifene hydrochloride]

Compound: C[C@H]1CCC[C@@H](O)CCCCCc2cc(O)cc(O)c2C(=O)O1 [Taleranol]
- LEL (Rattus norvegicus [2]; oral): 0.06 mg/day

Compound: CCCCCCC(=O)O[C@H]1CC[C@H]2[C@@H]3CCC4=CC(=O)CC[C@]4(C)[C@H]3CC[C@]12C [Testosterone enanthate]
- LOEL (Rattus norvegicus [2]; Hershberger, duration: 10 days, oral, gavage, Sprague-Dawley, active + Androgenic + Negative + androgenic): 50 mg/kg-day

Compound: C[C@H]1CCC[C@@H](O)CCC/C=C/c2cc(O)cc(O)c2C(=O)O1 [beta-Zearalenol]
- LEL (Rattus norvegicus [2]; oral): 0.8 mg/day
